Several values for one entry are separate records, joined by “and”; a condition that tells them apart may be missing. Equal values may be shown once.
What was measured:
[1] = target: Construct 4 (recombinant Hokkaido N1 NA, Tetrabrachion stalk) (Influenza A virus, UniProt Q7TER1); assay type: biochemical, Influenza virus strain A/Hokkaido/15/02 H1N1
[2] = target: Construct 2 (recombinant Hokkaido N1 NA, GCN4-pLI stalk) (Influenza A virus, UniProt Q7TER1); assay type: biochemical, Influenza virus strain A/Hokkaido/15/02 H1N1
[3] = target: Hokkaido virus NA (Influenza A virus, UniProt Q7TER1); assay type: biochemical, Influenza virus strain A/Hokkaido/15/02 H1N1
[4] = target: Construct 4: FLAG-tagged recombinant Hokkaido N1 neuraminidase with an artificial Tetrabrachion stalk (Staphylothermus marinus | influenza A virus A/Hokkaido/15/02 (H1N1)); experiment: SEC

Chain of Construct 2 (recombinant Hokkaido N1 NA, GCN4-pLI stalk) (Q7TER1 70-470): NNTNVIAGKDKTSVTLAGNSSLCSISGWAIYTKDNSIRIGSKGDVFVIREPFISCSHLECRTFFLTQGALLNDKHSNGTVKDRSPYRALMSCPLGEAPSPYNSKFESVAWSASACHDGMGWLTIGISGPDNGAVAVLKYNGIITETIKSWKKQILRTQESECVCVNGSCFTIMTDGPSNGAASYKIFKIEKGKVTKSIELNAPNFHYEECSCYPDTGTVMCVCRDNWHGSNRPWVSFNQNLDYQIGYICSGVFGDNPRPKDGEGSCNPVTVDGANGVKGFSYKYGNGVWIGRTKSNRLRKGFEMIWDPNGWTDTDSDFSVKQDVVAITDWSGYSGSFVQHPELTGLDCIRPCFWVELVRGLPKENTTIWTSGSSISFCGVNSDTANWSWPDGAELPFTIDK
Chain of Construct 4 (recombinant Hokkaido N1 NA, Tetrabrachion stalk) (Q7TER1 70-470): as above
Chain of Hokkaido virus NA (Q7TER1 entry or part of it, added parts left off): as the sequence (Q7TER1 70-470) above

CC(=O)N[C@H]1[C@H]([C@H](O)[C@H](O)CO)OC(Oc2ccc3c(C)cc(=O)oc3c2)(C(=O)O)C[C@@H]1O (stereo partly drawn) [MUNANA, 4-Methylumbelliferyl N-acetyl-a-D-Neuraminic acid]
K m value for MUNANA [1]: 34.7 µM and 34.7 ± 1.9 µM | K m value for MUNANA [2]: 54.4 µM and 54.1 µM and 54.1 ± 4.4 µM | K m value for MUNANA [3]: 24.1 µM and 24.1 ± 1.1 µM

Construct 4: FLAG-tagged recombinant Hokkaido N1 neuraminidase with an artificial Tetrabrachion stalk (enzyme)
stoichiometry N [4]: 4

Source: article PMC3034727 (PLoS ONE, 2011)
